Here are results for 23 compounds from patent US9855249B2, “Isoxazole compounds and methods for the treatment of cystic fibrosis” (FLATLEY DISCOVERY LAB, LLC, priority 2014, dated 2018).

This experiment relates to CFTR mediated chloride current in Primary CF airway epithelial cells. Briefly: Equivalent current assay in primary CF airway epithelial cells (NAUC). In kind it is cell-based. The following applies: 24 h treatment, stimulated with forskolin and VX770, normalized to positive control 3 μM VX809. The procedure:
Primary CF airway epithelial cells were obtained from the UNC Cystic Fibrosis Tissue Procurement and Cell Culture Core. The cells are grown at 37° C. in a Heracell 150i incubator using growth media (BEGM, Fischer). Cells were then transferred to differentiation media (ALI, UNC) for a minimum of 4 weeks on coated Costar snapwells. Two days before the Ussing assay the mucus on the apical surface of the cells was aspirated after incubating with 200 μL of differentiation Media for at least thirty (30) minutes. One day before the Ussing assay test compounds were added to the basolateral surface of the cells at various test concentrations dissolved in DMSO. Duplicate wells were prepared giving a n=3 or n=4 protocol.
Cells were treated for 24 hours with various combinations and concentrations of the test articles, reference standard (3 μM VX809, positive control). Compounds stock solutions were prepared in DMSO and diluted 1/1000 into ALI media to their final assay concentration. Cells were treated with combination solutions (2 mL of each dilution) and incubated at 37° C. for 24 h.
For the equivalent current assay, cells on four Transwell (24-well) plates were treated. Each Transwell plate was filled with 200 μl of HBS on the apical surface and 2 ml on the basolateral surface. Plates were placed horizontally in a heated mount at 37° C., and equilibrated for several minutes. Resting current was measured for 15 min and then blocked by the apical addition of 5 μM benzamil. After 20 min, 10 μM forskolin and 1 μM VX770 were added to both the apical and basolateral side to stimulate CFTR. An increase in chloride current is seen as an upward deflection of the trace. After another 30 min, CFTR-172 (a CFTR inhibitor, 2 μM) and/or bumetanide (20 μM) was added to block CFTR mediated chloride current.
The raw data, current vs. time for the Ussing chamber (sampling interval: 10 s) and voltage vs. time and resistance vs. time for the equivalent current assay (sampling interval: 5 minutes) were transferred to Excel (Microsoft Office Professional, version 14.0.7106.5003) for analysis. CFTR specific current was measured as the average amplitude of the increase in current elicited upon addition forskolin and ending upon addition of the CFTR channel specific blocker CFTR-172. This average is equivalent to the sum of the average forskolin activated and the average VX770-potentiated currents. The average current measured in vehicle (0.1% DMSO) treated cells, Iv, was subtracted from the current for the test article, ITA, or from the corrector reference standard VX809 (3 μM ISTD. For replicate measurements, the average vehicle subtracted response for the test article, was normalized to the average vehicle subtracted […] response of the reference corrector VX809 (3 μM). INSC=(ITA−IV)(ave)/(ISTD−IV)(ave) (Equation 1)
A second endpoint, for the equivalent current assay, evaluated was NAUC, the normalized area under the curve (AUC) measuring the response after addition of forskolin and VX770 to the time point right before the addition of the CFTR inhibitor. The AUC is effectively the average response multiplied by the duration of the response. The AUC of the test article, AUCTA was then corrected by subtracting the average vehicle response, AUCV,ave over the same time range, and normalized as for the inhibitor-sensitive current to the difference of the corrector reference standard VX809 (3 μM VX809r,ave and the vehicle response: NAUCTA=[AUCTA−AUCV,ave]/[AUCVx809r,ave−AUCV,ave](Equation 2).
The normalized value for DMSO is 0.0 and for VX-809 alone is 1.0. Combinations of compounds with VX-809 that give normalized values greater than 1.0 show activity in the combination assay. A value of 2 means the test compound doubles the effect to VX-809 alone.
Experiments were run with a minimum of n=4 replicates per concentration. […]

The structures appear in SMILES notation.

Turning to `CN1CCN(C(=O)CCNC(=O)c2cc(-c3ccc(F)cc3)on2)CC1` [Example 1, 5-(4-fluorophenyl)-N-(3-(4-methylpiperazin-1-yl)-3-oxopropyl)isoxazole-3-carboxamide], the “NAUC (normalized area under the curve), Test Conc 3 uM” value is listed as “++ (NAUC “++” refers to an observed NAUC 170-140% of positive control)” and the “NAUC (normalized area under the curve), Test Conc 10 uM” value is on record as “+++ (NAUC “+++” refers to an observed NAUC >170% of positive control)”.

On to `O=C(NCCC(=O)N1CCCC1)c1cc(-c2ccc(F)cc2)on1` [Example 2], for which the “NAUC (normalized area under the curve), Test Conc 3 uM” value is listed as “++ (NAUC “++” refers to an observed NAUC 170-140% of positive control)” and the “NAUC (normalized area under the curve), Test Conc 10 uM” value is on record as “+++ (NAUC “+++” refers to an observed NAUC >170% of positive control)”.

Regarding `CCN(CC)C(=O)CCNC(=O)c1cc(-c2ccc(F)cc2)on1` [Example 3], the “NAUC (normalized area under the curve), Test Conc 3 uM” value was “++ (NAUC “++” refers to an observed NAUC 170-140% of positive control)” and the “NAUC (normalized area under the curve), Test Conc 10 uM” value is reported as “+++ (NAUC “+++” refers to an observed NAUC >170% of positive control)”.

As to `O=C(NCCC(=O)N1CCCCC1)c1cc(-c2ccc(F)cc2)on1` [Example 4], the “NAUC (normalized area under the curve), Test Conc 3 uM” value was “++ (NAUC “++” refers to an observed NAUC 170-140% of positive control)” and the “NAUC (normalized area under the curve), Test Conc 10 uM” value is listed as “+++ (NAUC “+++” refers to an observed NAUC >170% of positive control)”.

Take `O=C(CCNC(=O)c1cc(-c2ccc(F)cc2)on1)NCC1CC1` [Example 6]: the “NAUC (normalized area under the curve), Test Conc 3 uM” value is “++ (NAUC “++” refers to an observed NAUC 170-140% of positive control)” and the “NAUC (normalized area under the curve), Test Conc 10 uM” value was “+++ (NAUC “+++” refers to an observed NAUC >170% of positive control)”.

As to `O=C(NCCC(=O)N1CCC1)c1cc(-c2ccc(F)cc2)on1` [Example 8], the “NAUC (normalized area under the curve), Test Conc 3 uM” value is on record as “+++ (NAUC “+++” refers to an observed NAUC >170% of positive control)” and the “NAUC (normalized area under the curve), Test Conc 10 uM” value is “+++ (NAUC “+++” refers to an observed NAUC >170% of positive control)”.

Turning to `O=C(NCCC(=O)N1CCOCC1)c1cc(-c2ccc(F)cc2)on1` [Example 10], the “NAUC (normalized area under the curve), Test Conc 3 uM” value is “++ (NAUC “++” refers to an observed NAUC 170-140% of positive control)” and the “NAUC (normalized area under the curve), Test Conc 10 uM” value is reported as “+++ (NAUC “+++” refers to an observed NAUC >170% of positive control)”.

As for `O=C(CCNC(=O)c1cc(-c2ccc(F)cc2)on1)Nc1ccccn1` [Example 13], the “NAUC (normalized area under the curve), Test Conc 3 uM” value is recorded as “+ (NAUC “+” refers to an observed NAUC <140% of positive control)” and the “NAUC (normalized area under the curve), Test Conc 10 uM” value is given as “++ (NAUC “++” refers to an observed NAUC 170-140% of positive control)”.

As to `CN1CCN(C(=O)CCCNC(=O)c2cc(-c3ccc(F)cc3)on2)CC1` [Example 14, 5-(4-fluorophenyl)-N-(4-(4-methylpiperazin-1-yl)-4-oxobutyl)isoxazole-3-carboxamide], the “NAUC (normalized area under the curve), Test Conc 3 uM” value is reported as “+++ (NAUC “+++” refers to an observed NAUC >170% of positive control)” and the “NAUC (normalized area under the curve), Test Conc 10 uM” value is “+++ (NAUC “+++” refers to an observed NAUC >170% of positive control)”.

Take `CN1CCN(C(=O)CCCCNC(=O)c2cc(-c3ccc(F)cc3)on2)CC1` [Example 15, 5-(4-fluorophenyl)-N-(5-(4-methylpiperazin-1-yl)-5-oxopentyl)isoxazole-3-carboxamide]: the “NAUC (normalized area under the curve), Test Conc 3 uM” value is reported as “+++ (NAUC “+++” refers to an observed NAUC >170% of positive control)” and the “NAUC (normalized area under the curve), Test Conc 10 uM” value is recorded as “+++ (NAUC “+++” refers to an observed NAUC >170% of positive control)”.

In the case of `O=C(NCCCCC(=O)N1CCC1)c1cc(-c2ccc(F)cc2)on1` [Example 16, N-(5-(azetidin-1-yl)-5-oxopentyl)-5-(4-fluorophenyl)isoxazole-3-carboxamide], the “NAUC (normalized area under the curve), Test Conc 3 uM” value is “+++ (NAUC “+++” refers to an observed NAUC >170% of positive control)” and the “NAUC (normalized area under the curve), Test Conc 10 uM” value is “+++ (NAUC “+++” refers to an observed NAUC >170% of positive control)”.

As for `O=C(NCCc1ccccc1)c1cc(-c2ccc(F)cc2)on1` [Example 17, 5-(4-fluorophenyl)-N-phenethylisoxazole-3-carboxamide], the “NAUC (normalized area under the curve), Test Conc 3 uM” value is reported as “+ (NAUC “+” refers to an observed NAUC <140% of positive control)” and the “NAUC (normalized area under the curve), Test Conc 10 uM” value is “++ (NAUC “++” refers to an observed NAUC 170-140% of positive control)”.

As for `NS(=O)(=O)c1ccc(CNC(=O)c2cc(-c3ccc(F)cc3)on2)cc1` [Example 18], the “NAUC (normalized area under the curve), Test Conc 3 uM” value is reported as “++ (NAUC “++” refers to an observed NAUC 170-140% of positive control)” and the “NAUC (normalized area under the curve), Test Conc 10 uM” value is recorded as “++ (NAUC “++” refers to an observed NAUC 170-140% of positive control)”.

For `CC(C)Oc1ccc(CNC(=O)c2cc(-c3ccc(F)cc3)on2)cc1` [Example 19], the “NAUC (normalized area under the curve), Test Conc 3 uM” value is recorded as “+ (NAUC “+” refers to an observed NAUC <140% of positive control)” and the “NAUC (normalized area under the curve), Test Conc 10 uM” value was “+ (NAUC “+” refers to an observed NAUC <140% of positive control)”.

For `CC(C)OCCNC(=O)c1cc(-c2ccc(F)cc2)on1` [Example 20], the “NAUC (normalized area under the curve), Test Conc 3 uM” value is on record as “+ (NAUC “+” refers to an observed NAUC <140% of positive control)” and the “NAUC (normalized area under the curve), Test Conc 10 uM” value is “++ (NAUC “++” refers to an observed NAUC 170-140% of positive control)”.

As to `O=C(NC[C@@H]1CCCO1)c1cc(-c2ccc(F)cc2)on1` [Example 21], the “NAUC (normalized area under the curve), Test Conc 3 uM” value is recorded as “+ (NAUC “+” refers to an observed NAUC <140% of positive control)” and the “NAUC (normalized area under the curve), Test Conc 10 uM” value is “++ (NAUC “++” refers to an observed NAUC 170-140% of positive control)”.

Consider `CC(C)CNC(=O)c1cc(-c2ccc(F)cc2)on1` [Example 22], for which the “NAUC (normalized area under the curve), Test Conc 3 uM” value is recorded as “+ (NAUC “+” refers to an observed NAUC <140% of positive control)” and the “NAUC (normalized area under the curve), Test Conc 10 uM” value was “++ (NAUC “++” refers to an observed NAUC 170-140% of positive control)”.

On to `O=C(NCc1cccnc1)c1cc(-c2ccc(F)cc2)on1` [Example 24], for which the “NAUC (normalized area under the curve), Test Conc 3 uM” value is “++ (NAUC “++” refers to an observed NAUC 170-140% of positive control)” and the “NAUC (normalized area under the curve), Test Conc 10 uM” value is given as “++ (NAUC “++” refers to an observed NAUC 170-140% of positive control)”.

For `O=C(NCc1cccc(F)c1F)c1cc(-c2ccc(F)cc2)on1` [Example 25], the “NAUC (normalized area under the curve), Test Conc 3 uM” value is recorded as “+ (NAUC “+” refers to an observed NAUC <140% of positive control)” and the “NAUC (normalized area under the curve), Test Conc 10 uM” value is “+ (NAUC “+” refers to an observed NAUC <140% of positive control)”.

As to `CCNC(=O)c1cc(-c2ccc(F)cc2)on1` [Example 26], the “NAUC (normalized area under the curve), Test Conc 3 uM” value was “+++ (NAUC “+++” refers to an observed NAUC >170% of positive control)” and the “NAUC (normalized area under the curve), Test Conc 10 uM” value is “+++ (NAUC “+++” refers to an observed NAUC >170% of positive control)”.

For `O=C(NCc1ccccc1)c1cc(-c2ccc(F)cc2)on1` [Example 27], the “NAUC (normalized area under the curve), Test Conc 3 uM” value was “++ (NAUC “++” refers to an observed NAUC 170-140% of positive control)” and the “NAUC (normalized area under the curve), Test Conc 10 uM” value is recorded as “++ (NAUC “++” refers to an observed NAUC 170-140% of positive control)”.

For `N#Cc1ccc(CNC(=O)c2cc(-c3ccc(F)cc3)on2)cc1` [Example 28], the “NAUC (normalized area under the curve), Test Conc 3 uM” value is recorded as “+ (NAUC “+” refers to an observed NAUC <140% of positive control)” and the “NAUC (normalized area under the curve), Test Conc 10 uM” value was “+ (NAUC “+” refers to an observed NAUC <140% of positive control)”.

In the case of `O=C(NC1CCCC1)c1cc(-c2ccc(F)cc2)on1` [Example 29], the “NAUC (normalized area under the curve), Test Conc 3 uM” value is on record as “++ (NAUC “++” refers to an observed NAUC 170-140% of positive control)” and the “NAUC (normalized area under the curve), Test Conc 10 uM” value is “++ (NAUC “++” refers to an observed NAUC 170-140% of positive control)”.
